Assay results reported in patent publication US9745328B2, “Flap modulators” (JANSSEN PHARMACEUTICA NV, priority 2013, dated 2017).
Structures can show the parent of a compound that is named as a salt.

Target: human FLAP (Homo sapiens (Human), UniProt P20292)
Test: FLAP binding assay (HTRF format)
Conditions: Table 5, human FLAP wild type
Method: The ability of the compounds of the present invention to treat a FLAP-mediated disease and/or disorder, or associated symptoms or complications thereof, was determined using the following procedures. Binding assay data represent the average value obtained from two different assay plates, with samples run in duplicate on each plate. Human whole blood assay data represent a single replicate on an assay plate using whole blood from at least one healthy donor.
Data are expressed as a HTRF ratio.

Chain of human FLAP (P20292 whole entry): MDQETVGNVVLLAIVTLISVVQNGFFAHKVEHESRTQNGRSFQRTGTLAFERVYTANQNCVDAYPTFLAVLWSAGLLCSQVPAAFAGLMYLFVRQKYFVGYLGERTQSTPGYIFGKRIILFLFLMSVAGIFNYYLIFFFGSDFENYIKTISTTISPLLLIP

SMILES	Ki
Nc1cnc(-c2ccc(-c3cccnc3S(=O)(=O)C3CCNC3)cc2F)cn1 (racemic) [Example 803, 5-(2-Fluoro-4-(2-(pyrrolidin-3-ylsulfonyl)pyridin-3-yl)phenyl)pyrazin-2-amine hydrochloride]	106 nM

Same assay, conditions: Table 6 (additional runs), human FLAP wild type

SMILES	Ki
CC(NS(=O)(=O)c1ccccc1-c1ccc(-c2cnc(N)cn2)c(F)c1)C(F)(F)F (racemic) [Example 8, (racemic)-4′-(5-Aminopyrazin-2-yl)-3′-fluoro-N-(2,2,2-trifluoro-1-methylethyl)biphenyl-2-sulfonamide racemic]	1.3 nM
Nc1cnc(-c2ccc(-c3ccccc3S(=O)(=O)NC3CC4CCC3C4)cc2F)cn1 (racemic) [Example 10, (racemic)-(endo)-4′-(5-Aminopyrazin-2-yl)-N-bicyclo[2.2.1]hept-2-yl-3′-fluorobiphenyl-2-sulfonamide racemic]	2.7 nM
Nc1cnc(-c2ccc(-c3ccccc3S(=O)(=O)N3CCN4CCCC4C3)cc2F)cn1 (racemic) [Example 61, racemic 5-[3-Fluoro-2′-(hexahydropyrrolo[1,2-a]pyrazin-2(1H)-ylsulfonyl)biphenyl-4-yl]pyrazin-2-amine]	15.9 nM
Nc1cnc(-c2ccc(-c3ccccc3S(=O)(=O)N3CCCC(CCO)C3)cc2F)cn1 (racemic) [Example 71, racemic 2-(1-{[4′-(5-Aminopyrazin-2-yl)-3′-fluorobiphenyl-2-yl]sulfonyl}piperidin-3-yl)ethanol]	1.9 nM
CC(C)(C)OC(=O)NC1CCCN(S(=O)(=O)c2ccccc2-c2ccc(-c3cnc(N)cn3)c(F)c2)C1 (racemic) [Example 77, racemic tert-Butyl (1-{[4′-(5-aminopyrazin-2-yl)-3′-fluorobiphenyl-2-yl]sulfonyl}piperidin-3-yl)carbamate]	3.2 nM
Nc1cnc(-c2ccc(-c3ccccc3S(=O)(=O)N[C@H]3CCCC[C@@H]3O)cc2F)cn1 (racemic) [Example 120, racemic (trans)-4′-(5-Aminopyrazin-2-yl)-3′-fluoro-N-(2-hydroxycyclohexyl)biphenyl-2-sulfonamide]	1.1 nM
Nc1cnc(-c2ccc(-c3ccccc3S(=O)(=O)N[C@H]3CCCC[C@@H]3CO)cc2F)cn1 (racemic) [Example 121, racemic (trans)-4′-(5-Aminopyrazin-2-yl)-3′-fluoro-N-[2-(hydroxymethyl)cyclohexyl]biphenyl-2-sulfonamide]	0.5 nM
Nc1cnc(-c2ccc(-c3ccccc3S(=O)(=O)N[C@@H]3CCCC[C@@H]3CO)cc2F)cn1 (racemic) [Example 122, racemic (cis)-4′-(5-Aminopyrazin-2-yl)-3′-fluoro-N-[2-(hydroxymethyl)cyclohexyl]biphenyl-2-sulfonamide]	0.7 nM
Nc1ncc(-c2ccc(-c3ccccc3S(=O)(=O)N[C@H]3CCCC[C@H]3O)cc2F)cn1 (racemic) [Example 259, racemic (cis) 4′-(2-Aminopyrimidin-5-yl)-3′-fluoro-N-[(cis)-2-hydroxycyclohexyl]biphenyl-2-sulfonamide]	7.8 nM
Nc1ncc(-c2ccc(-c3ccccc3S(=O)(=O)N[C@H]3CCCC[C@@H]3O)cc2F)cn1 (racemic) [Example 260, racemic (trans) 4′-(2-Aminopyrimidin-5-yl)-3′-fluoro-N-[(trans)-2-hydroxycyclohexyl]biphenyl-2-sulfonamide]	8.9 nM
CC(NS(=O)(=O)c1ccccc1-c1ccc(-c2cnc3[nH]ccc3n2)c(F)c1)C(F)(F)F (racemic) [Example 376, 3′-Fluoro-4′-(5H-pyrrolo[2,3-b]pyrazin-2-yl)N-N-(2,2,2-trifluoro-1-methylethyl)biphenyl-2-sulfonamide]	0.5 nM
C[C@H](NS(=O)(=O)c1ccccc1-c1ccc(-c2cnc(N)cn2)c(F)c1)C(O)c1ccccc1 (stereo in doubt) [Example 83, 4′-(5-Aminopyrazin-2-yl)-3′-fluoro-N-[(1S,2R)-2-hydroxy-1-methyl-2-phenylethyl]biphenyl-2-sulfonamide]	0.7 nM
CN1CCN([C@H]2CN(S(=O)(=O)c3ccccc3-c3ccc(-c4cnc(N)cn4)c(F)c3)C[C@@H]2O)CC1 (stereo in doubt) [Example 188, (3S,4S)-1-{[4′-(5-Aminopyrazin-2-yl)-3′-fluorobiphenyl-2-yl]sulfonyl}-4-(4-methylpiperazin-1-yl)pyrrolidin-3-ol]	201 nM
CC(CO)NS(=O)(=O)c1ccccc1-c1ccc(-c2cnc3[nH]ccc3n2)c(F)c1 (stereo in doubt) [Example 378, 3′-Fluoro-N-[(1R)-2-hydroxy-1-methylethyl]-4′-(5H-pyrrolo[2,3-b]pyrazin-2-yl)biphenyl-2-sulfonamide]	0.6 nM
CC(CO)NS(=O)(=O)c1ccccc1-c1ccc(-c2cnc3[nH]ccc3n2)c(F)c1 (stereo in doubt) [Example 380, 3′-Fluoro-N-[(1S)-2-hydroxy-1-methylethyl]4′-(5H-pyrrolo[2,3-b]pyrazin-2-yl)biphenyl-2-sulfonamide]	1.1 nM
CS(=O)(=O)c1ccccc1-c1ccc(-c2cnc(N)cn2)c(F)c1 [Example 1, 5-(3-Fluoro-2′-(methylsulfonyl)-[1,1′-biphenyl]-4-yl)pyrazin-2-amine]	352 nM
CS(=O)(=O)Nc1ccccc1-c1ccc(-c2cnc(N)cn2)c(F)c1 [Example 2, N-[4′-(5-Aminopyrazin-2-yl)-3′-fluorobiphenyl-2-yl]methanesulfonamide]	178 nM

SMILES	Ki
CC(C)(C)NS(=O)(=O)c1ccccc1-c1ccc(-c2cnc(N)cn2)c(F)c1 [Example 4, 4′-(5-Aminopyrazin-2-yl)-N-(tert-butyl)-3′-fluoro-[1,1′-biphenyl]-2-sulfonamide]	0.4 nM
Nc1cnc(-c2ccc(-c3ccccc3S(=O)(=O)NC3CCCCC3)cc2F)cn1 [Example 6, 4′-(5-Aminopyrazin-2-yl)-N-cyclohexyl-3′-fluorobiphenyl-2-sulfonamide]	1.1 nM
CC(C)CNS(=O)(=O)c1ccccc1-c1ccc(-c2cnc(N)cn2)c(F)c1 [Example 7, 4′-(5-Aminopyrazin-2-yl)-3′-fluoro-N-(2-methylpropyl)biphenyl-2-sulfonamide]	0.8 nM
Nc1cnc(-c2ccc(-c3ccccc3S(=O)(=O)NCC3CCC3)cc2F)cn1 [Example 9, 4′-(5-Aminopyrazin-2-yl)-N-(cyclobutylmethyl)-3′-fluorobiphenyl-2-sulfonamide]	1.5 nM
CC1(NS(=O)(=O)c2ccccc2-c2ccc(-c3cnc(N)cn3)c(F)c2)CCC1 [Example 11, 4′-(5-Aminopyrazin-2-yl)-3′-fluoro-N-(1-methylcyclobutyl)biphenyl-2-sulfonamide]	1.6 nM
CCC(C)(C)NS(=O)(=O)c1ccccc1-c1ccc(-c2cnc(N)cn2)c(F)c1 [Example 12, 4′-(5-Aminopyrazin-2-yl)-N-(1,1-dimethylpropyl)-3′-fluorobiphenyl-2-sulfonamide]	1.9 nM
CC(C)(NS(=O)(=O)c1ccccc1-c1ccc(-c2cnc(N)cn2)c(F)c1)C(F)(F)F [Example 13, 4′-(5-4minopyrazin-2-yl)-3′-fluoro-N-(2,2,2-trifluoro-1,1-dimethylethyl)biphenyl-2-sulfonamide]	1.2 nM
Nc1cnc(-c2ccc(-c3ccccc3S(=O)(=O)NC3CCCC3)cc2F)cn1 [Example 14, 4′-(5-Aminopyrazin-2-yl)-N-cyclopentyl-3′-fluorobiphenyl-2-sulfonamide]	3.5 nM
CNS(=O)(=O)c1ccccc1-c1ccc(-c2cnc(N)cn2)c(F)c1 [Example 15, 4′-(5-Aminopyrazin-2-yl)-3′-fluoro-N-methylbiphenyl-2-sulfonamide]	11.1 nM
CCNS(=O)(=O)c1ccccc1-c1ccc(-c2cnc(N)cn2)c(F)c1 [Example 16, 4′-(5-Aminopyrazin-2-yl)-N-ethyl-3′-fluorobiphenyl-2-sulfonamide]	5 nM
Nc1cnc(-c2ccc(-c3ccccc3S(=O)(=O)NCCc3ccccc3)cc2F)cn1 [Example 17, 4′-(5-Aminopyrazin-2-yl)-3′-fluoro-N-(2-phenylethyl)biphenyl-2-sulfonamide]	1.7 nM
Nc1cnc(-c2ccc(-c3ccccc3S(=O)(=O)N[C@H](c3ccccc3)C(F)(F)F)cc2F)cn1 [Example 18]	1.8 nM
Nc1cnc(-c2ccc(-c3ccccc3S(=O)(=O)N[C@@H](c3ccccc3)C(F)(F)F)cc2F)cn1 [Example 19]	2.2 nM
Nc1cnc(-c2ccc(-c3ccccc3S(=O)(=O)NC3Cc4ccccc4C3)cc2F)cn1 [Example 21, 4′-(5-Aminopyrazin-2-yl)-N-(2,3-dihydro-1H-inden-2-yl)-3′-fluorobiphenyl-2-sulfonamide]	2.1 nM
Nc1cnc(-c2ccc(-c3ccccc3S(=O)(=O)N[C@@H]3CCc4ccccc43)cc2F)cn1 [Example 23, (R)-4′-(5-Aminopyrazin-2-yl|)-N-[(1R)-2,3-dihydro-1H-inden-1-yl]-3′-fluorobiphenyl-2-sulfonamide]	1.2 nM
Nc1cnc(-c2ccc(-c3ccccc3S(=O)(=O)Nc3ccccc3)cc2F)cn1 [Example 26, 4′-(5-Aminopyrazin-2-yl)-3′-fluoro-N-phenylbiphenyl-2-sulfonamide]	0.9 nM
CCN1CCCC[C@@H](NS(=O)(=O)c2ccccc2-c2ccc(-c3cnc(N)cn3)c(F)c2)C1=O [Example 27]	26.3 nM

Same assay, conditions: human FLAP wild type, Table 6 (additional runs)

SMILES	Ki
Nc1cnc(-c2ccc(-c3cccnc3S(=O)(=O)C3CCNC3)cc2F)cn1 (racemic) [Example 803, 5-(2-Fluoro-4-(2-(pyrrolidin-3-ylsulfonyl)pyridin-3-yl)phenyl)pyrazin-2-amine hydrochloride]	106 nM
CC(CO)NS(=O)(=O)c1ccccc1-c1ccc(-c2cnc(N)c(C#N)n2)c(F)c1 (stereo in doubt) [Example 410, 4′-(5-amino-6-cyanopyrazin-2-yl)-3′-fluoro-N-[(1R)-2-hydroxy-1-methylethypiphenyl-2-sulfonamide]	3.7 nM
CC(O)CNS(=O)(=O)c1ccccc1-c1ccc(-c2cnc(N)c(C#N)n2)c(F)c1 (stereo in doubt) [Example 415, 4′-(5-Amine-6-cyanopyrazin-2-yl)-3′-fluoro-N-[(R)-2-hydroxypropyl]biphenyl-2-sulfonamide]	10.9 nM

Same assay, conditions: human FLAP wild type, a calculated value of 0.000 indicates Ki less than 1 nM

SMILES	Ki
Nc1cnc(-c2ccc(-c3ccccc3S(=O)(=O)N[C@H]3CCCC[C@@H]3CO)cc2F)cn1 (racemic) [Example 121, racemic (trans)-4′-(5-Aminopyrazin-2-yl)-3′-fluoro-N-[2-(hydroxymethyl)cyclohexyl]biphenyl-2-sulfonamide]	< 1 nM
CC(NS(=O)(=O)c1ccccc1-c1ccc(-c2cnc3[nH]ccc3n2)c(F)c1)C(F)(F)F (racemic) [Example 376, 3′-Fluoro-4′-(5H-pyrrolo[2,3-b]pyrazin-2-yl)N-N-(2,2,2-trifluoro-1-methylethyl)biphenyl-2-sulfonamide]	< 1 nM
